Data on 5 compounds can be found in ChEMBL document CHEMBL1121561, “Synthesis and antineoplastic activity of a novel series of phosphoramide mustard analogues of pyrimidine deoxyribonucleosides” (1980).

Calls of active or inactive are those of the source. The calls are words filed in the database; no cut-off is given here.

The test system of experiment [1] is L1210. The experiment is described as follows: Compound was tested in vitro for its inhibition against replication of L1210 neoplastic cells; Inactive. Type of experiment: functional, cell-based. The note with it: Mus musculus.
The subject of experiment [2] is L1210. In words: Compound was tested in vitro for its inhibition against replication of L1210 neoplastic cells. Type of experiment: functional. The note with it: Mus musculus, read-out: ID50 (the source's name).

On to `O=P1(N(CCCl)CCCl)NCCCO1` (stereo not given), for which the ID50 result in the experiment on L1210 [1] is “inactive”.

`Cc1cn(C2CC3OP(=O)(N(CCCl)CCCl)NCC3O2)c(=O)[nH]c1=O` (stereo not given): in the experiment on L1210 [2], the IC50 amounted to 12 µM.

`O=c1[nH]c(=O)n(C2CC3OP(=O)(N(CCCl)CCCl)NCC3O2)cc1I` (stereo not given): the IC50 with L1210 [2] came out at 14 µM.

Take `Cc1cn(C2CC3OP(=O)(N(CCCl)CCCl)N(C)CC3O2)c(=O)[nH]c1=O` (stereo not given): the IC50 with L1210 [2] stood at 15 µM.

For the compound `Cc1cn(C2CC3NP(=O)(N(CCCl)CCCl)NCC3O2)c(=O)[nH]c1=O` (stereo not given), the ID50 entry in the experiment with L1210 [1] was “inactive”.
